Tests used:
Format in all cases: functional
SNB-19 [1] = assay: Growth inhibition of human SNB19 cells at 10 uM after 7 days by celltiter-glo assay; details: SNB-19, 168 h, read-out: GI
MOLT-4 = assay: Growth inhibition of human MOLT4 cells at 10 uM after 7 days by celltiter-glo assay; details: MOLT-4, 168 h, read-out: GI
[2] = Growth inhibition of human […] cells at 10 uM after 7 days by celltiter-glo assay; details: 168 h, read-out: GI
SK-OV-3 = assay: Growth inhibition of human SKOV3 cells after 7 days by celltiter-glo assay; details: SK-OV-3, 168 h
T47D = assay: Growth inhibition of human T47D cells at 10 uM after 7 days by celltiter-glo assay; details: 168 h, read-out: GI
TK-10 [3] = assay: Growth inhibition of human TK10 cells after 7 days by celltiter-glo assay; details: TK-10, 168 h
SNB-75 = assay: Growth inhibition of human SNB75 cells at 10 uM after 7 days by celltiter-glo assay; details: SNB-75, 168 h, read-out: GI
HCT-15 [4] = assay: Ratio of compound GI50 to chlorambucil GI50 for human HCT15 cells
HT-29 = assay: Growth inhibition of human HT-29 cells after 7 days by celltiter-glo assay; details: HT-29, 168 h
SW-620 = assay: Growth inhibition of human SW620 cells after 7 days by celltiter-glo assay; details: SW-620, 168 h
BT-549 = assay: Growth inhibition of human BT549 cells at 10 uM after 7 days by celltiter-glo assay; details: BT-549, 168 h, read-out: GI
SK-MEL-2 = assay: Growth inhibition of human SK-MEL-2 cells after 7 days by celltiter-glo assay; details: SK-MEL-2, 168 h
MCF7 = assay: Growth inhibition of human MCF7 cells after 7 days by celltiter-glo assay; details: MCF7, 168 h
TK-10 [5] = assay: Growth inhibition of human TK10 cells at 10 uM after 7 days by celltiter-glo assay; details: TK-10, 168 h, read-out: GI
SR = assay: Growth inhibition of human SR cells after 7 days by celltiter-glo assay; details: 168 h
MDA-MB-435 = assay: Growth inhibition of human MDA-MB-435 cells after 7 days by celltiter-glo assay; details: MDA-MB-435, 168 h
K562 = assay: Growth inhibition of human K562 cells at 10 uM after 7 days by celltiter-glo assay; details: K562, 168 h, read-out: GI
IGROV-1 = assay: Growth inhibition of human IGROV1 cells after 7 days by celltiter-glo assay; details: IGROV-1, 168 h
SF-539 = assay: Growth inhibition of human SF539 cells after 7 days by celltiter-glo assay; details: SF-539, 168 h
SNB-19 [6] = assay: Growth inhibition of human SNB19 cells after 7 days by celltiter-glo assay; details: SNB-19, 168 h
UO-31 = assay: Growth inhibition of human UO31 cells after 7 days by celltiter-glo assay; details: UO-31, 168 h
NCI-H322M = assay: Growth inhibition of human NCI-H322M cells after 7 days by celltiter-glo assay; details: 168 h
HCT-15 [7] = assay: Growth inhibition of human HCT15 cells after 7 days by celltiter-glo assay; details: HCT-15, 168 h
MDA-MB-468 = assay: Growth inhibition of human MDA-MB-468 cells after 7 days by celltiter-glo assay; details: MDA-MB-468, 168 h
A549 = assay: Growth inhibition of human A549 cells at 10 uM after 7 days by celltiter-glo assay; details: A549, 168 h, read-out: GI
NCI-H226 = assay: Growth inhibition of human NCI-H226 cells at 10 uM after 7 days by celltiter-glo assay; details: NCI-H226, 168 h, read-out: GI
[8] = Growth inhibition of human Hs 578T cells after 7 days by celltiter-glo assay; details: 168 h
U-251 = assay: Growth inhibition of human U251 cells at 10 uM after 7 days by celltiter-glo assay; details: U-251, 168 h, read-out: GI
COLO 205 = assay: Growth inhibition of human COLO205 cells after 7 days by celltiter-glo assay; details: COLO 205, 168 h

CON(CCCc1ccc(N(CCCl)CCCl)cc1)C1OC[C@@H](O)[C@@H]1O (some centres undefined)
inhibition of growth at 10 µM (SNB-19 [1]): 65.8%
inhibition of growth at 10 µM (MOLT-4): 64.4%
inhibition of growth at 10 µM [2]: 15.9%
GI50 (SK-OV-3): 1.5 µM
inhibition of growth at 10 µM (T47D): 48%
GI50 (TK-10 [3]): 31.7 µM
inhibition of growth at 10 µM (SNB-75): 66.7%
RatioGI50 (HCT-15 [4]): 15
GI50 (HT-29): 0.41 µM
GI50 (SW-620): 12.4 µM
inhibition of growth at 10 µM (BT-549): 38.5%
GI50 (SK-MEL-2): 20.2 µM
GI50 (MCF7): 1.8 µM
inhibition of growth at 10 µM (TK-10 [5]): 97.2%
GI50 (SR): 0.386 µM
GI50 (MDA-MB-435): 21.1 µM
inhibition of growth at 10 µM (K562): 88.5%
GI50 (IGROV-1): 1.21 µM
GI50 (SF-539): 8.8 µM
GI50 (SNB-19 [6]): 33.4 µM
GI50 (UO-31): 0.856 µM
GI50 (NCI-H322M): > 100 µM
GI50 (HCT-15 [7]): 0.53 µM
GI50 (MDA-MB-468): 7.25 µM
inhibition of growth at 10 µM (A549): 69.7%
inhibition of growth at 10 µM (NCI-H226): 84.2%
GI50 [8]: 24.7 µM
inhibition of growth at 10 µM (U-251): 59.9%
GI50 (COLO 205): 12.7 µM
